Measured values taken from ChEMBL document CHEMBL1140028, “Heterocyclic alpha-helix mimetics for targeting protein-protein interactions” (Bioorg Med Chem Lett, 2007).
Calls of active or inactive are those of the source. The rule behind the calls is not given here.

test system: Bcl-XL (Homo sapiens); experiment: Binding affinity to Bcl-XL by fluorescence polarization assay

Activity	Structure (SMILES)
Active	CCC(C)C1CN(C(=O)c2cc(Cc3ccccc3)c(-c3nc(CC(C)C)co3)nn2)CCN1C (centres undefined)
Active	CC(C)c1coc(-c2cc(CC3CCCCC3)c(-c3nc(C(C)C)co3)nn2)n1
Active	CC(C)Cc1cc(C(=O)N2CCC[C@@H](OCc3ccccc3)C2)nnc1-c1nc(C(C)C)co1
Active	CC(C)Cc1cc(-c2nc(C(C)C)co2)nnc1-c1nc(C(C)C)co1
